This note sets out measurements from patent US6342503B1, “1N-alkyl-n-arylpyrimidinamines and derivatives thereof” (DuPont Pharmaceuticals Company, priority 1993, dated 2002).

Some results are limits rather than exact numbers.

The target of one test is T1, CRF receptor (Rattus norvegicus, UniProt P35353).
T1 construct: 100 μl of membrane suspension as prepared above to give a total reaction volume of 300 μl; from tissue; host or cells: rat cerebral cortex membrane homogenate
T1 sequence (P35353 24-415): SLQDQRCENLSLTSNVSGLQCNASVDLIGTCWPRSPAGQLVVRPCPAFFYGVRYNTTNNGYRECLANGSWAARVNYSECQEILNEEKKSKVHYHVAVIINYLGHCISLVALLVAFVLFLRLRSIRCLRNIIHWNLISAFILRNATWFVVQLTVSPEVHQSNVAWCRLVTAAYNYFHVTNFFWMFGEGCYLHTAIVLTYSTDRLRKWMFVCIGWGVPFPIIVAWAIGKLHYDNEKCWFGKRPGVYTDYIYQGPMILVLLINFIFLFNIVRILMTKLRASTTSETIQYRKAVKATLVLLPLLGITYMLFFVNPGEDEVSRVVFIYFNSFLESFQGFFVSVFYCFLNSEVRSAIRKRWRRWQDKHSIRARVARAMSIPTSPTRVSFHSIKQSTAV
The experiment in a line: In vitro CRF receptor binding assay (competition with [125I] ovine CRF, rat cortex membranes). Particulars: competition with [125I] ovine CRF, 2 h at 22° C.; Ki classes; read-out: Inhibition Ki. The protocol: In vitro Receptor Binding Assay
Tissue Preparation: Male Sprague Dawley rats (180-200 g) were sacrificed by decapitation and the cortex was dissected on ice, frozen whole in liquid nitrogen and stored at −70° C. until use. On the day of assay, frozen tissue was weighed and homogenized in 20 volumes of ice cold buffer containing 50 mM Tris, 10 mM MgCl2, 2 mM EGTA, pH 7.0 at 22° C. using a Polytron (Brinkmann Instruments, Westbury, N.Y.; setting 6) for 20 s. The homogenate was centrifuged at 48,000× g for 10 min at 4° C. The supernatant was discarded, and the pellet was re-homogenized in the same volume of buffer and centrifuged at 48,000× g for 10 min at 4° C. The resulting pellet was resuspended in the above buffer to a final concentration of 20-40 mg original wet weight/mL and used in the assays described below.
CRF Receptor Binding: Receptor binding assays were carried out essentially as described by E. B. De Souza, J. Neurosci. […]
All assays were carried out at equilibrium for 2 h at 22° C. as described by E. B. De Souza, J. Neurosci. […] The reaction was terminated by centrifugation of the tubes in a Beckman microfuge for 5 min at 12,000× g. Aliquots of the supernatant were collected to determine the “free” radioligand concentration. The remaining supernatant was aspirated and the pellets washed gently with ice-cold PBS plus 0.01% Triton X-100; centrifuged again and monitored for bound radioactivity as described above. […] This program has the distinct advantage of fitting the raw experimental data on an untransformed coordinate system where errors are most likely to be normally distributed and uncorrelated with the independent variable. […] The parameters for the affinity constants (KD) and receptor densities (Bmax) are also provided along with statistics on the general “fit” of the estimated parameters to the raw data.
Competition Curve Analysis
The resulting pellets were surface washed twice by centrifugation with 1 mL of ice-cold phosphate buffered saline and 0.01% Triton X-100; the supernatants discarded and the pellets monitored for radioactivity at approximately 80% efficiency. The level of non-specific binding was defined in the presence of […] unlabeled rat/humanCRF (r/hCRF). Data from competition curves were analyzed by the program LIGAND. […] Routinely, the data were analyzed using a one- and two-site model comparing the “goodness of fit” between the models in order to accurately determine the Ki. Statistical analyses provided by LIGAND allowed the determination of whether a single-site or multiple-site model should be used.
In Table 17; the Ki values were determined using the assay conditions described above.
Turning to `CCN(c1nc(C)cc(C(=O)OC)n1)c1ccc(C(C)C)cc1Br` [compound 61, Methyl 2-((2-bromo-4-(1-methylethyl)phenyl)ethylamino)-6-methyl-4-pyrimidinecarboxylate], the Ki was less than 500 nM.

Turning to `CCN(c1nc(C)cc(C(=O)N2CCN(C)CC2)n1)c1ccc(C(C)C)cc1Br` [compound 63, N-(2-bromo-4-(1-methylethyl)phenyl)-N-ethyl-4-methyl-6-(4-methylpiperazinylcarbonyl)-2-pyrimidinamine], the inhibition constant Ki lay within 2000 to 10000 nM.

`CCSc1cc(C(C)=NOC)ccc1N(CC)c1nc(C)cc(C)n1` [compound 176, N-(2-ethylthio-4-methoxyiminoethylphenyl)-N-ethyl-4,6-dimethyl-2-pyrimidinamine]: the Ki was less than 500 nM.

For the compound `CCN(c1nc(C)cc(CN2CCOCC2)n1)c1ccc(C(C)C)cc1Br` [compound 59, N-(2-bromo-4-(1-methylethyl)phenyl)-N-ethyl-6-methyl-4-(4-morpholinylmethyl)-2-pyrmidinamine], the Ki was less than 500 nM.

The same test, now with this note: read-out: Inhibition Ki.
Take `CCN(c1nc(C)cc(NCCN(C)C)n1)c1ccc(C(C)C)cc1Br` [compound 163]: the inhibitory constant (Ki) lay within 501 to 2000 nM.

As to `CCN(c1nc(C)cc(COc2cc(OC)c(OC)c(OC)c2)n1)c1ccc(C(C)C)cc1Br` [compound 214], the Ki is 501 to 2000 nM.

Consider `CCN(c1nc(C)cc(COCc2cc(OC)c(OC)c(OC)c2)n1)c1ccc(C(C)C)cc1Br` [compound 212], for which the Ki is less than 500 nM.

On to `CCN(CC)c1nc(C)nc(N(CC)c2ccc(C(C)C)cc2Br)n1` [compound 232], for which the Ki was less than 500 nM.

On to `Cc1cc(C)nc(N(C)c2ccc(C(C)(C)C)cc2Br)n1` [compound 11], for which the inhibition constant Ki is less than 500 nM.

Take `CCN(c1nc(C)cc(C)n1)c1ccc(C(C)OC)cc1SC` (stereo not shown) [compound 189, N-(4-(1-methoxyethyl)-2-methylthiophenyl)-N-ethyl-4,6-dimethyl-2-pyrimidinamine]: the Ki is less than 500 nM.

For the compound `CCN(c1nc(C)cc(OCCCSC)n1)c1ccc(C(C)C)cc1Br` [compound 150], the Ki is less than 500 nM.

Consider `CCN(c1nc(C)cc(C)n1)c1c(OC)cc(C)cc1OC` [compound 51], for which the Ki was in the range of 501 to 2000 nM.

Regarding `CCN(c1nc(C)cc(C(=O)NC)n1)c1ccc(C(C)C)cc1Br` [compound 271], the Ki is less than 500 nM.

For the compound `Cc1ccc(N(C)c2nc(C)cc(C)n2)c(Br)c1` [compound 1, N-(2-bromo-4-methylphenyl)-N-methyl-4,6-dimethyl-2-pymidinamine], the Ki was 501 to 2000 nM.

`CCN(c1nc(C)cc(CN(C)Cc2ccco2)n1)c1ccc(C(C)C)cc1Br` [compound 276]: the Ki is less than 500 nM.

For `CCN(c1nc(C)nc(N2CCCCC2)n1)c1ccc(C(C)C)cc1I` [compound 137], the inhibition constant (Ki) is less than 500 nM.

As to `CCN(c1nc(C)cc(OCCCS(C)(=O)=O)n1)c1ccc(C(C)C)cc1Br` [compound 156], the inhibition constant (Ki) is less than 500 nM.

For `CCN(c1nc(C)cc(N(C)CCO)n1)c1ccc(C(C)C)cc1Br` [compound 50, N-(2-Bromo-4-(1-methylethyl)phenyl)-N-ethyl-4-methyl-6-(N-methyl-2-hydroxyethlamino)-2-pyrimidinamine], the Ki was less than 500 nM.

Regarding `CCN(c1nc(C)cc(COCCN2CCOCC2)n1)c1ccc(C(C)C)cc1Br` [compound 231], the Ki was in the range of 2000 to 10000 nM.

As to `CCN(c1nc(C)nc(N2CCOCC2)n1)c1ccc(C(C)C)cc1I` [compound 136], the inhibition constant Ki was less than 500 nM.

As for `CCN(c1nc(C)cc(COc2ccccc2)n1)c1ccc(C(C)C)cc1Br` [compound 209], the Ki is less than 500 nM.

In the case of `CCN(c1nc(C)cc(COCCOC)n1)c1ccc(C(C)C)cc1Br` [compound 227], the Ki was less than 500 nM.

In the case of `CCc1ccc(N(CC)c2nc(C)cc(C)n2)c(SC)c1` [compound 182, N-(4-ethyl-2-methylthiophenyl)-N-ethyl-4,6-dimethyl-2-pyrimidinamine], the inhibition constant (Ki) is less than 500 nM.

Regarding `CCN(c1cc(OC)nc(OC)n1)c1ccc(C(C)C)cc1Br` [compound 130], the Ki lay in the range of 501 to 2000 nM.

On to `CCN(c1nc(C)cc(CN(C)C)n1)c1ccc(C(C)C)cc1Br` [compound 279], for which the inhibitory constant (Ki) is less than 500 nM.

In the case of `CCN(c1nc(C)cc(C)n1)c1ccc(OC(C)C)cc1Br` [compound 57, N-(2-Bromo-4-(isopropoxy)phenyl)-N-ethyl-4,6dimethyl-2-pymidinamine], the inhibition constant Ki is less than 500 nM.

Turning to `CCCCc1ccc(N(CC)c2nc(C)cc(C)n2)c(Br)c1` [compound 19], the Ki is less than 500 nM.

Regarding `Cc1cc(Cl)c2ccn(-c3ccc(C(C)C)cc3Br)c2n1` [Example 259], the Ki is less than 500 nM.

With `CCN(c1nc(C)nc(N(C)C)n1)c1c(Br)cc(OC)cc1OC` [compound 238], the inhibition constant Ki is less than 500 nM.

`CCN(c1nc(C)cc(OC[C@@H]2CCCN2C)n1)c1ccc(C(C)C)cc1SC` [compound 177, N-(2-methylthio4-(1-methylethyl)phenyl)-N-ethyl-4(S)-(N-methyl-2′-pyrrolidinomethoxy)-6-methyl-2-pyrimidinamine]: the Ki was in the range of 501 to 2000 nM.

Take `Cc1cc(C)nc(N2CCCSc3cc(C(C)C)ccc32)n1` [compound 173]: the inhibition constant Ki fell in the range of 501 to 2000 nM.

In the case of `CCN(c1nc(C)cc(C(C)(C)O)n1)c1ccc(C(C)C)cc1Br` [compound 295], the inhibitory constant (Ki) is less than 500 nM.

With `CCN(c1nc(C)cc(C(=O)c2c[nH]c3ccccc23)n1)c1ccc(C(C)C)cc1Br` [compound 283], the inhibitory constant (Ki) is 2000 to 10000 nM.

For the compound `CCN(c1nc(C)cc(C)n1)c1ccc(OC)cc1Br` [compound 206], the Ki is less than 500 nM.

Take `CCN(c1nc(C)cc(COc2ccc(-n3ccnc3)cc2)n1)c1ccc(C(C)C)cc1Br` [compound 218]: the Ki was less than 500 nM.

Take `Cc1cc(C)nc(N(C)c2ccc(C(C)C)cc2)n1` [compound 66]: the Ki was in the range of 2000 to 10000 nM.

With `Cc1cc(C)nc(N(C)c2ccccc2I)n1` [compound 53], the inhibition constant Ki lay within 2000 to 10000 nM.

Turning to `CCCCc1ccc(N(CC)c2nc(CC)cc(CC)n2)c(Br)c1` [compound 24], the Ki lay within 501 to 2000 nM.

For the compound `Cc1cc(C)c2ccn(-c3ccc(C(C)C)cc3Br)c2n1` [Example 257], the inhibitory constant (Ki) was less than 500 nM.

For the compound `CCN(c1nc(C)nc(C)n1)c1ccc(C(C)C)cc1Br` [compound 133], the inhibition constant Ki fell in the range of 501 to 2000 nM.

With `CCN(c1nc(C)cc([S+](C)[O-])n1)c1ccc(C(C)C)cc1Br` (stereo not shown) [compound 160, N-(2-bromo-4-(1-methylethyl)phenyl)-N-ethyl-4-methyl-6-(thiomethyl)-2-pyrimidinamine, S-oxide], the inhibitory constant (Ki) was less than 500 nM.

Consider `Cc1cc(-c2ccccc2)c2c(C#N)cn(-c3ccc(C(C)C)cc3Br)c2n1` [Example 256], for which the Ki was less than 500 nM.

Take `CCN(c1nc(C)nc(N2CCOCC2)n1)c1c(OC)cc(OC)cc1OC` [compound 239]: the inhibition constant (Ki) was less than 500 nM.

`CCN(c1nc(C)cc(OCc2ccccc2)n1)c1ccc(C(C)C)cc1Br` [compound 149]: the inhibition constant Ki was less than 500 nM.

Consider `CCN(c1nc(C)cc(N)n1)c1ccc(C(C)C)cc1Br` [compound 155], for which the Ki was less than 500 nM.

For the compound `C=CCN(c1nc(C)cc(N2CCOCC2)n1)c1ccc(C(C)C)cc1Br` [compound 17], the Ki was less than 500 nM.

Regarding `C=CCN(c1nc(C)cc(C)n1)c1ccccc1Br` [compound 3], the Ki was in the range of 501 to 2000 nM.

As to `Cc1cc(Cl)nc2c1ccn2-c1ccc(C(C)C)cc1Br` [Example 263], the inhibition constant (Ki) is less than 500 nM.

For `CCN(c1nc(C)cc(COCc2ccncc2)n1)c1ccc(C(C)C)cc1Br` [compound 219], the Ki is less than 500 nM.

As a reminder, the Ki is the equilibrium dissociation constant of an inhibitor or competing ligand from its target.
